What all share (type): biochemical
Test [1] concerns the target T1, human liver cathepsin B (Homo sapiens, UniProt P07858).
T1 construct: purchased Sigma, EMDbiosciences; host or cells: human liver
As to the kind of experiment: Specificity assay, cathepsin B. The settings on record: read-out: Cathepsin B activity in the specificity assays (IC50). On the procedure: (§1) The specificities of compounds of the present disclosure were determined against a variety of serine proteases: human neutrophil elastase (HNE), porcine pancreatic elastase (PPE) and human pancreatic chymotrypsin and one cysteine protease: human liver cathepsin B. In all cases a 96-well plate format protocol using either colorimetric p-nitroaniline (pNA) substrate or fluorometric Amino-Methyl-Coumarin (AMC) specific for each enzyme was used as described previously (PCT Patent Application No. WO 00/09543) with some modifications to the serine protease assays. All enzymes were purchased from Sigma, EMDbiosciences while the substrates were from Bachem, Sigma and EMDbiosciences.
(§2) The pNA assay for Chymotrypsin included a 1 h enzyme-inhibitor pre-incubation at room temperature followed by addition of substrate and hydrolysis to ˜15% conversion as measured on a Spectramax Pro microplate reader. Compound concentrations varied from 100 to 0.4 μM depending on their potency. Cathepsin B, HNE, and PPE assays each was initiated by addition of substrate to enzyme-inhibitor pre-incubated for 10 min at room temperature and hydrolysis to 15% conversion as measured on cytofluor. […]
(§3) The percentage of inhibition was calculated using the formula: [1−((UVinh−UVblank)/(UVctl−UVblank))]×100 […]

Test [2] concerns the target T2, human pancreatic chymotrypsin (Homo sapiens, UniProt P17538).
T2 construct: purchased Sigma, EMDbiosciences
As to the kind of experiment: Specificity assay, chymotrypsin. As to conditions: read-out: Chymotrypsin activity in the specificity assays (IC50). On the procedure: as §1, §2, §3

The target of test [3] is T3, HCV NS3/4A protease complex, H77 strain (Hepatitis C virus genotype 1a, UniProt P27958, C1454S/C1711G).
T3 construct: DNA encoding the recombinant HCV NS3/4A protease complex (amino acids 1027 to 1711) for these strains; made in house; host or cells: Escherichia coli BL21 (DE3), pET21b
Description: FRET peptide assay to monitor HCV NS3/4A proteolytic activity (H77 strain). The settings on record: read-out: IC50 against the NS3/4A H77 strain. The text has this:
HCV NS3 protease complexes, derived from the BMS strain, H77 strain or J4L6S strain, were generated, as described below. These purified recombinant proteins were generated for use in a homogeneous assay (see below) to provide an indication of how effective compounds of the present disclosure would be in inhibiting HCV NS3 proteolytic activity.
Serum from an HCV-infected patient was obtained from Dr. T. Wright, San Francisco Hospital. An engineered full-length cDNA (compliment deoxyribonucleic acid) template of the HCV genome (BMS strain) was constructed from DNA fragments obtained by reverse transcription-PCR (RT-PCR) of serum RNA (ribonucleic acid) and using primers selected on the basis of homology between other genotype 1a strains. From the determination of the entire genome sequence, a genotype 1a was assigned to the HCV isolate according to the classification of Simmonds et al. (See P Simmonds, K A Rose, S Graham, S W Chan, F McOmish, B C Dow, E A Follett, P L Yap and H Marsden, J. Clin. Microbiol., 31(6), 1493-1503 (1993)). […]

The text below walks through data of patent publication US7772180B2, “Hepatitis C virus inhibitors” (Bristol-Myers Squibb Company, priority 2006, dated 2010).

T3 sequence (P27958 1027-1711 C1454S/C1711G, one chain of several): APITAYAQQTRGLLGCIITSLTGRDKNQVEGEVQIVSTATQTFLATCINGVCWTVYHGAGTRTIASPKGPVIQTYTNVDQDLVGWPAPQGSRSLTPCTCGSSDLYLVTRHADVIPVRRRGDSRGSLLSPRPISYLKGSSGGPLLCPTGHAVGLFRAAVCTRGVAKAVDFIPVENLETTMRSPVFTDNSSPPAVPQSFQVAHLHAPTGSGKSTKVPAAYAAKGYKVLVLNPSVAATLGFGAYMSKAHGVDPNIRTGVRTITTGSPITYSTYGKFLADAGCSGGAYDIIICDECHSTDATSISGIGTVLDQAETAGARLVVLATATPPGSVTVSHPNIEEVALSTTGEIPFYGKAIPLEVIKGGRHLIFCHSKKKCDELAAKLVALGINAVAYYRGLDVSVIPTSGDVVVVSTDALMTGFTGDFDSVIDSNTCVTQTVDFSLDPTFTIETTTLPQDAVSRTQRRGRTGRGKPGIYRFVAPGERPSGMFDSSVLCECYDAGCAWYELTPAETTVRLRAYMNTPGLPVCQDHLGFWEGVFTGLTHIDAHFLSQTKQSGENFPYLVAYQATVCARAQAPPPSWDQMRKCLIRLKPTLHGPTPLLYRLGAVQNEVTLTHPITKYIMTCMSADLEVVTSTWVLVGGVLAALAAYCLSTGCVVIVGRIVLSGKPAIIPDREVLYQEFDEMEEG
T2 sequence (P17538 19-263): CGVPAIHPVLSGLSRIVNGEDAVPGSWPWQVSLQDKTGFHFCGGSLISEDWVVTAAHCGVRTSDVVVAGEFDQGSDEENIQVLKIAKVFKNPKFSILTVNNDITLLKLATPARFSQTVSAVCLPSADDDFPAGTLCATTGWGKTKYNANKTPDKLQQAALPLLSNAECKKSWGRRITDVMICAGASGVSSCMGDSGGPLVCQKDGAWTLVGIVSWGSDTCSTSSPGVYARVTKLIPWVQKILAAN

On to `C=C[C@@H]1C[C@]1(NC(=O)[C@@H]1C[C@@H](Oc2nc(N(C)C)cc3cc(OC)ccc23)CN1C(=O)C(Nc1cc(C)cc(C)n1)C(C)(C)C)C(=O)NS(=O)(=O)C1CC1` (single isomer, unassigned) [Compound 18], for which the figures for the IC50 in test [1], in test [2] and in test [3] were more than 50 µM, more than 50 µM and 0.0012 µM, respectively.
